From patent US20250195472A1, “Indole Alkaloid as Antineoplastic Agent” (NAPP TECNOLOGIAS, S.A. DE C.V., priority 2021, published 2025) come the findings set out here.

For one series, the system named is SKUL (lung). The experiment in a line: Sulforhodamine B growth inhibition, SKUL (lung). It counts as cell-based, human. To be noted: for inhibition at 100 µM: Homo sapiens, read-out: Growth inhibition by cell line (%) SKUL. On the procedure:
(§1) For the evaluation of the cytotoxic effect of Andranone on neoplastic cells, 6 cell lines were used:
(§2) HCT-15 (colon), MCF-7 (breast), K-562 (leukemia), U-251 (central nervous system), PC-3 (prostate), SKUL (lung) and COST-7 (cervical uterus) from the National Cancer Institute (NCI) of the United States. The cytotoxicity of Andranone was determined in sixfold microcultures using preferable Andranone concentrations between 0.1 and 1.0 μM, more specifically between 0.1 and 0.6 μM and mostly between 0.1 and 0.3 μM. Cell viability and growth were measured indirectly by the sulforhodamine B method according to procedures validated by the NCI, using salicylic acid and Mezalasin as negative control compounds, and Cis-platinum as a control antineoplastic drug at concentrations of 100 μM.

The test system of another series is COST-7 (cervical uterus). The experiment in a line: Sulforhodamine B growth inhibition, COST-7 (cervical uterus). It counts as cell-based, human. The conditions noted are these: for inhibition at 100 µM: Homo sapiens, read-out: Growth inhibition by cell line (%) COST-7. On the procedure:
as §1, §2

Another series deals with PC-3 (prostate). Kind of series: Sulforhodamine B growth inhibition, PC-3 (prostate). It counts as cell-based, human. The conditions noted are these: for inhibition at 100 µM: Homo sapiens, read-out: Growth inhibition by cell line (%) PC-3. On the procedure:
as §1, §2

In a further series the test system is MCF-7 (breast). The experiment in a line: Sulforhodamine B growth inhibition, MCF-7 (breast). The class given is cell-based, human. To be noted: for inhibition at 100 µM: Homo sapiens, MCF7, read-out: Growth inhibition by cell line (%) MCF-7. On the procedure:
as §1, §2

Another series relates to HCT-15 (colon). Kind of series: Sulforhodamine B growth inhibition, HCT-15 (colon). The class given is cell-based, human. The conditions noted are these: for inhibition at 100 µM: Homo sapiens, HCT-15, read-out: Growth inhibition by cell line (%) HTC-15. On the procedure: as §1, §2
Another series has as its system K-562 (leukemia). The experiment in a line: Sulforhodamine B growth inhibition, K-562 (leukemia). The class given is cell-based, human. To be noted: for inhibition at 100 µM: Homo sapiens, K562, read-out: Growth inhibition by cell line (%) K-562. On the procedure:
as §1, §2

Series [1] relates to U-251 (central nervous system). The experiment in a line: Sulforhodamine B growth inhibition, U-251 (central nervous system). It counts as cell-based, human. To be noted: for inhibition at 100 µM: Homo sapiens, U-251, read-out: Growth inhibition by cell line (%) U-251. On the procedure: as §1, §2
Another series deals with U-251 cell line. Kind of series: Fluorescence analysis of effect on the cell membrane. To be noted: high and low concentration (10 and 100 μM). The class given is cell-based, human. On the procedure: To determine the Andranone action mechanism on neoplastic cells, a fluorescence analysis was performed on cells of the U-251 cell line treated with 10 and 100 μM of cis-platinum and 0.1 and 0.2 μM of Andranone.

Series [2] concerns 1321N1 (Normal brain cells). The experiment in a line: In vitro cytotoxic activity IC50, 1321N1. The class given is cell-based, human. The source says:
(§3) Additionally, the cytotoxic activity was weighted by the IC50 of Andranone on 12 cell lines of neuronal origin, PFSK-1 (brain, cerebral hemisphere); A-172 (Glioblastoma, patient); SW1088 (Brain Fibroblast); Daoy (Brain, Cerebellum); 1321N1 (Normal brain cells) HT-29 (Colorectal Carcinoma); SW-620 (Colorectal carcinoma); H-358 (Lung carcinoma); A-549 (Lung carcinoma); LA-N-5 (Neuroblastoma); SK—N-SH (Neuroblastoma); and L-929 (Mouse fibrosarcoma) using Bevacizumab as a control. The IC50 determination of Andranone was carried out in microcultures in sixfold.

Series [3] concerns PFSK-1 (brain, cerebral hemisphere). The experiment in a line: In vitro cytotoxic activity IC50, PFSK-1. It counts as cell-based, human.
Description: as §3

Series [4] relates to L-929 (Mouse fibrosarcoma). Kind of series: In vitro cytotoxic activity IC50, L-929. The class given is cell-based.
Description: as §3

Series [5] deals with SW-620 (Colorectal carcinoma). Kind of series: In vitro cytotoxic activity IC50, SW-620. It counts as cell-based, human.
Description: as §3

For series [6], the system named is SW1088 (Brain Fibroblast). Kind of series: In vitro cytotoxic activity IC50, SW1088. The class given is cell-based, human.
Description: as §3

Series [7] deals with HT-29 (Colorectal Carcinoma). The experiment in a line: In vitro cytotoxic activity IC50, HT-29. The class given is cell-based, human.
Description: as §3

The subject of a further series is Daoy (Brain, Cerebellum). The experiment in a line: In vitro cytotoxic activity IC50, Daoy. It counts as cell-based, human.
Description: as §3

The next series deals with H-358 (Lung carcinoma). Kind of series: In vitro cytotoxic activity IC50, H-358. The class given is cell-based, human.
Description: as §3

The next series deals with A-172 (Glioblastoma). The experiment in a line: In vitro cytotoxic activity IC50, A-172. The class given is cell-based, human.
Description: as §3

A further series concerns SK-N-SH (Neuroblastoma). The experiment in a line: In vitro cytotoxic activity IC50, SK-N-SH. It counts as cell-based, human.
Description: as §3

A further series has as its system A-549 (Lung carcinoma). Kind of series: In vitro cytotoxic activity IC50, A-549. It counts as cell-based, human.
Description: as §3

In a further series the test system is LA-N-5 (Neuroblastoma). The experiment in a line: In vitro cytotoxic activity IC50, LA-N-5. The class given is cell-based, human.
Description: as §3

Series [8] deals with human peripheral blood lymphocytes. The experiment in a line: Micronucleus test in human peripheral blood lymphocytes. The class given is cell-based. On the procedure: […] At 44 h, cytochalasin B (4.5 μg/mL) was added to all cultures and at 72 h the lymphocytes were harvested by centrifugation at 1500 rpm for 10 min. The cell bud was divided into 2 parts, one to perform the micronucleus test and the other was kept in PBS (pH 7.5) at −80° C. to perform the RT-qPCR tests.
For the micronucleus test, the first part of the cell bud was prefixed with 1 mL of Carnoy's fixative (3:1) and centrifuged at 1500 rpm for 10 min. The supernatant was removed, and the cell bud was resuspended. 5 mL of Carnoy fixative was added and centrifuged again at 1500 rpm for 10 min. This step was repeated 2 more times. Lamellae were made on slides using the drip technique and allowed to air dry. The samples were stained in 5% Giemsa dye and analyzed in the optical microscope at 40× to determine the frequency of micronuclei in 1000 cells (in duplicate).

What is called inhibition is the percentage by which the read-out fell short of the control. The term IC50 denotes the concentration that gives 50% inhibition. A high value points to weaker potency in that assay.

For `N.N.[Cl][Pt][Cl]` [Cisplatin], the “Growth inhibition by cell line (%) SKUL” value with SKUL (lung) (100 μM) came out at 81.35%. Moreover, in the series with COST-7 (cervical uterus) (100 μM), the “Growth inhibition by cell line (%) COST-7” value turned out to be 43.39%. In addition, the “Growth inhibition by cell line (%) PC-3” value with PC-3 (prostate) (100 μM) was found to be 32.42%. In addition, the “Growth inhibition by cell line (%) MCF-7” value in the series on MCF-7 (breast) (100 μM) came out at 42.65%. Further, the “Growth inhibition by cell line (%) HTC-15” value in the series on HCT-15 (colon) (100 μM) was determined as 87.49%. The “Growth inhibition by cell line (%) K-562” value with K-562 (leukemia) (100 μM) was determined as 79.15%. In series [1] (100 μM), the “Growth inhibition by cell line (%) U-251” value was 65.9%. Moreover, the “fluorescence analysis, cell membrane / cell death” value in the series on U-251 cell line is reported as “cell membrane alteration without being so obvious”.
Turning to `Nc1ccc(O)c(C(=O)O)c1` [Mesalazine], the inhibition at 100 µM was less than 3.1% in the series on SKUL (lung); less than 3.1% in the series with COST-7 (cervical uterus); 3.1% in the series with PC-3 (prostate); 11.9% in the series on MCF-7 (breast); less than 3.1% in the series with HCT-15 (colon); 8.1% with K-562 (leukemia). Further, the inhibition at 100 µM in [1] stood at 6.3%.
As to `O=C(O)c1ccccc1O` [Salicylic acid], the inhibition at 100 µM was 10.1% in the series on SKUL (lung); 11.2% in the series on COST-7 (cervical uterus); 6.9% in the series with PC-3 (prostate); 4.9% in the series with MCF-7 (breast); less than 3.1% in the series with HCT-15 (colon); 6.6% in the series on K-562 (leukemia). Besides, the inhibition at 100 µM in [1] was found to be 6.8%.
Take “Bevacizumab: Bevacizumab used as a control in the IC50 determination”: the half-maximal inhibitory concentration (IC50) in [2] is 39.5 µM; in series [3] it was 31.2 µM; in [4], 126 µM; in series [5], 27.2 µM; in series [6], 47.3 µM; in series [7] it was 38.4 µM. Also, the half-inhibitory concentration (IC50) in the series on Daoy (Brain, Cerebellum) was found to be 29.4 µM; in the series on H-358 (Lung carcinoma), 115 µM; in the series on A-172 (Glioblastoma) it was 41.4 µM; in the series on SK-N-SH (Neuroblastoma), 88.4 µM; in the series on A-549 (Lung carcinoma) it was 105 µM; with LA-N-5 (Neuroblastoma), 79.3 µM.
Bleomycin showed an IDN in [8] (Bleomycin 3.2 μg/mL) of 1.60 ± 0.06. In addition, in [8] (Bleomycin 3.2 mg/mL), the IPBC came to 1.56 ± 0.05 and the “Relative cytotoxicity (%)” value came out at 34.50%. In addition, in [8] (positive control, 3.2 μg/mL, 72 h), the “frequency of MN” value was “significantly increased”.
